Values joined by “and” are separate entries in the source; they are usually repeats but may differ in a detail not shown here. Equal values may be shown once.
Tests used:
[1] = system: Escherichia coli (E. coli—ATCC #10536); assay: Synergy test: high resolution MBC microtiter plate assay, phosphate buffer containing 35% dipropylene glycol, 15 seconds contact; format: cell-based; conditions: E. coli 10536; for SI (Synergy Index): at Qa and Qb, less than one = synergy; for MBC of the component acting alone (QA / QB; Qa or Qb where the other component is 0): complete kill in 15 seconds
Description: The concentrations and ratios may also vary under different test conditions or with different test methods.
One measure of synergy is the industrially accepted method described by Kull, F. C.; Eisman, P. C.; Sylwestrowicz, H. D, and Mayer, R. L., in Applied Microbiology 9:538-541 (1961), using the ratio determined by the formula: […]=Synergy Index (“SI”) wherein; QA=concentration of compound A (first component) in percent, acting alone, which produced an end point (MBC of Compound A). Qa=concentration of compound A in percent, in the mixture, which produced an end point. QB=concentration of compound B (second component) in percent, acting alone, which, produced an end point (MBC of Compound B). Qb=concentration of compound B in percent, in the mixture, which produced an end point.
When the sum of Qa/QA and Qb/QB is greater than one, antagonism is indicated. […] The lower the SI, the greater is the synergy shown by that particular mixture. The minimum biocidal concentration (MBC) of a microbicide is the lowest concentration tested under a specific set of conditions that provides complete kill of the tested microorganisms.
Synergy tests were conducted using standard microliter plate assays with phosphate buffer containing 35% dipropylene glycol (DPG). In this method, a wide range of combinations of chemicals was tested by conducting high resolution MBC assays of Component (A) in the presence of various concentrations of Component (B). High resolution MBCs were determined by adding varying amounts of microbicide to one column of a microliter plate and doing subsequent […] dilutions using an automated liquid handling, system to obtain a series of closely spaced endpoints. The MBC plate was inoculated one column at a time with the test microorganism. An aliquot of the inoculated well was transferred at 15 seconds to a plate containing a neutralizing agent (D/E Neutralizing Broth), mixed and held for 5 minutes before being transferred to a growth plate containing trypticase soy broth (TSB). The TSB plate was incubated at 37° C. and read for the presence/absence of growth at 24 hours. The lowest level tested that provided complete kill (as evidenced by no growth in the microtitre plate) of the test organisms in 15 seconds is the minimum biocidal concentration (MBC).
The synergy of the combinations of the present invention was determined against a bacterium, Escherichia coli (E. coli—ATCC #10536), at a concentration of approximately 1×10^8 it bacteria per mL. This microorganism is representative of natural contaminants in many consumer and industrial applications.

[2] = system: Escherichia coli (E. coli—ATCC #10536); assay: Automated assessment of efficacy in surfactant base (2.85% sodium cocoyl glycinate and 1.85% sodium lauroamphoacetate, pH 10.0), 15 seconds exposure; format: cell-based; conditions: for MBC (minimum biocidal concentration): in 2.85% sodium cocoyl glycinate + 1.85% sodium lauroamphoacetate solution at pH 10, E. coli; for No. of replicates showing growth (out of 4) / Δ OD 450 nm = OD450 (time = 16 hours) − OD450 (time zero), Mean / Δ OD 590 nm OD590 (time = 16 hours) − OD590 (time zero), Mean: alone, model surfactant solution
Procedure: Test Methodology for Automated Assessment of Efficacy in Surfactant Base Microbiocidal Activity of Actives as Per the Invention in a Model Surfactant Medium Test Methodology for Automated Assessment of Efficacy in Surfactant Base In these examples, the efficacy of combinations of actives were tested in a surfactant cleansing formulation comprising 2.85% sodium cocoyl glycinate and 1.85% sodium lauroamphoacetate. This corresponds to a 50% in use dilution with water of a neat formulation containing 5.7% cocoyl glycinate and […] % sodium, lauroamphoacetate during hand washing. Solutions were prepared such that the concentrations of the surfactant components and test actives were 1.1× the final desired concentration in order to allow for dilution with the bacterial inoculum in the test. The solutions were manually adjusted to pH 10.0 by dropwise addition of sodium hydroxide solution, as measured with a pH meter at ambient temperature. The efficacy of the combinations of the present invention was determined against Escherichia coli (E. coli—ATCC #10536), at a concentration of approximately 1×10^8 bacteria per mL. Tests were conducted using standard microtiter plate assays using an automated liquid handling system. 270 μl of the surfactant test solution was pipetted into each well of the microtitre plate and 30 μl of the bacterial suspension was then added. Alter exactly 15 seconds of bacterial exposure, a 30 μl volume of bacterial cells was withdrawn and transferred to 270 μl of D/E quench solution. After 5 minutes in the D/E quench, the optical density (OD) was measured for each plate in turn at two specific wavelengths (450 nm and 590 nm). These provide a dual check of antimicrobial activity, as the OD450 reading is specific for the yellow colour of D/E quench when bacterial growth is observed, whereas OD590 is specific for the initial purple colour of the D/E quench which is retained if no bacterial growth is observed. After the time zero OD measurements, plates were then incubated at 37° C. overnight (16 hours) before repeating the OD measurements. Delta OD values were calculated by subtracting […]. Bacterial growth is observed as an increase in OD450 and a decrease in ΔOD590. To identify antibacterially efficacious systems (those preventing appreciable bacterial growth after incubation), the following threshold changes in OD readings have been adopted: if (1). OD450 increases by less than 0.2 absorbance unit on incubation and (2). OD590 decreases by less than 0.35 unit on incubation. Conversely, where OD450 increases by more than 0.2 AU and OD590 decreases by more than 0.35 unit after incubation, corresponding to a colour shift from purple to yellow, the test system allows bacterial growth and is not deemed efficacious. Four replicate measurements in the same plate have been made for each test system. The number of replicate wells showing either bacterial growth or no growth is also readily assessed by eye by following the colour change. Dose responses for individual components and binary mixtures of actives at a fixed concentration ratio were generated by sequential dilution of liquors with further surfactant solution to obtain a series of endpoints. […] In some selected cases, the combinations were also tested at the weight ratio 1:1.

SMILES	SI (Synergy Index) [1]	MBC of the component acting alone (QA / QB; Qa or Qb where the other component is 0) [1]	MBC (minimum biocidal concentration) [2]	No. of replicates showing growth (out of 4) ([2]; 0.1% w/v)	Δ OD 450 nm = OD450 (time = 16 hours) − OD450 (time zero), Mean ([2]; 0.1% w/v)	Δ OD 590 nm OD590 (time = 16 hours) − OD590 (time zero), Mean ([2]; 0.1% w/v)	No. of replicates showing growth (out of 4) ([2]; 0.2% w/v)	Δ OD 450 nm = OD450 (time = 16 hours) − OD450 (time zero), Mean ([2]; 0.2% w/v)	Δ OD 590 nm OD590 (time = 16 hours) − OD590 (time zero), Mean ([2]; 0.2% w/v)	No. of replicates showing growth (out of 4) ([2]; […] w/v)	Δ OD 450 nm = OD450 (time = 16 hours) − OD450 (time zero), Mean ([2]; […] w/v)	Δ OD 590 nm OD590 (time = 16 hours) − OD590 (time zero), Mean ([2]; […] w/v)	also measured
CC1=CC(C)C(CO)C(C)C1 (centres unmarked) [2,4,6-trimethyl-3-cyclohexene-1-methanol]	1.00	0.6 weight % and 1 weight % and 0.8 weight % and 0.3 weight %	0.4 % w/v	–	–	–	–	–	–	–	–	–	–
CC1=CCC(C(C)CO)CC1 (centres unmarked) [2-(4-methylcyclohex-3-enyl)propan-1-ol]	1.00	0.3 weight % and 0.25 weight %	–	–	–	–	–	–	–	–	–	–	MBC of the component acting alone (QA / QB; Qa or Qb where the other component is 0) ([1]; listed as 2-(4-methylcylohex-3-enyl)propan-1-ol): 0.25 weight %
Oc1ccccc1C1CCCC1 [2-cyclopentylphenol]	1.00	0.3 weight % and 0.5 weight %	>0.2 % w/v	4	−0.57	0.56	4	−0.52	0.61	4	−0.56	0.54	–
Oc1ccccc1Cc1ccccc1 [2-hydroxydiphenylmethane]	1.00	0.8 weight % and 0.5 weight % and 0.6 weight %	>0.2 % w/v	4	−0.51	0.62	4	−0.51	0.63	4	−0.49	0.64	–
Cc1cc(O)c(C(C)C)cc1Cl [4-chloro-2-isopropyl-5-methylphenol, reference compound]	–	–	>0.2 % w/v	–	–	–	–	–	–	–	–	–	–
Cc1cc(O)cc(C)c1Cl [4-chloro-3,5-dimethylphenol]	1.00	0.6 weight % and 1.0 weight % and 0.5 weight %	>0.2 % w/v	4	−0.49	0.63	4	−0.50	0.62	4	−0.47	0.63	–
Oc1ccc(C2CCCC2)cc1 [4-cyclopentylphenol]	1.00	0.3 weight % and 0.5 weight % and 0.2 weight %	>0.2 % w/v	–	–	–	4	−0.40	0.70	4	−0.45	0.65	No. of replicates showing growth (out of 4) ([2]; 0.125% w/v): 4; Δ OD 450 nm = OD450 (time = 16 hours) − OD450 (time zero), Mean ([2]; 0.125% w/v): −0.49; Δ OD 590 nm OD590 (time = 16 hours) − OD590 (time zero), Mean ([2]; 0.125% w/v): 0.62
Oc1ccc(Cc2ccccc2)cc1 [4-hydroxydiphenylmethane]	1.00	0.8 weight % and 0.6 weight %	>0.2 % w/v	4	−0.58	0.52	4	−0.52	0.61	4	−0.55	0.54	–
CC(C)(C)c1ccc(O)c(O)c1 [4-tert-butylbenzene-1,2-diol]	1.00	1.00 weight % and 1.0 weight %	>0.2 % w/v	–	–	–	4	−1.66	0.17	4	−1.63	0.20	No. of replicates showing growth (out of 4) ([2]; 0.125% w/v): 4; Δ OD 450 nm = OD450 (time = 16 hours) − OD450 (time zero), Mean ([2]; 0.125% w/v): −1.63; Δ OD 590 nm OD590 (time = 16 hours) − OD590 (time zero), Mean ([2]; 0.125% w/v): 0.22
Oc1cccc2c1CCCC2 [5,6,7,8-tetrahydronaphthalen-1-ol]	1.00	0.6 weight %	>0.2 % w/v	4	−0.57	0.56	4	−0.47	0.65	4	−0.52	0.58	–
C=C(C)[C@@H]1CC=C(CO)CC1 [(S)-(−) perillyl alcohol]	–	–	–	–	–	–	4	−1.49	0.29	–	–	–	No. of replicates showing growth (out of 4) ([2]; 0.5% w/v): 0; Δ OD 450 nm = OD450 (time = 16 hours) − OD450 (time zero), Mean ([2]; 0.5% w/v): −0.04; Δ OD 590 nm OD590 (time = 16 hours) − OD590 (time zero), Mean ([2]; 0.5% w/v): 0.07
CC1=CC(C)C(CO)C(C)C1 (centres unmarked) [Isocyclo-Geraniol]	–	–	–	–	–	–	4	−1.50	0.29	4	–	–	No. of replicates showing growth (out of 4) ([2]; 0.4% w/v): 0; Δ OD 450 nm = OD450 (time = 16 hours) − OD450 (time zero), Mean ([2]; 0.4% w/v): −0.06; Δ OD 590 nm OD590 (time = 16 hours) − OD590 (time zero), Mean ([2]; 0.4% w/v): 0.09

Reference: patent US9320271B2, “Microbial composition” (Rohm and Haas Company, priority 2011, dated 2016)
